Assay results reported in publication PMC9929232, “On-demand male contraception via acute inhibition of soluble adenylyl cyclase” (Nature Communications, 2023).
Several values for one entry are separate records, joined by “and”; a condition that tells them apart may be missing. Equal values may be shown once.

Tests used:
[1] = target: T1, purified recombinant human sAC protein (Homo sapiens, UniProt Q96PN6); assay: In vitro adenylyl cyclase activity assay (two-column method);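 on cyclase activity (%): 100% equals DMSO vehicle-treated control activity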; assay type: biochemical; set-up: cyclase activity: unit not given here; settings: for cyclase activity (%): Fig. 1c normalized replicates; for cyclase activity: Fig. 1c replicates
T1 construct: human sACt protein was incubated
T1 sequence (Q96PN6 1-469 limits assumed): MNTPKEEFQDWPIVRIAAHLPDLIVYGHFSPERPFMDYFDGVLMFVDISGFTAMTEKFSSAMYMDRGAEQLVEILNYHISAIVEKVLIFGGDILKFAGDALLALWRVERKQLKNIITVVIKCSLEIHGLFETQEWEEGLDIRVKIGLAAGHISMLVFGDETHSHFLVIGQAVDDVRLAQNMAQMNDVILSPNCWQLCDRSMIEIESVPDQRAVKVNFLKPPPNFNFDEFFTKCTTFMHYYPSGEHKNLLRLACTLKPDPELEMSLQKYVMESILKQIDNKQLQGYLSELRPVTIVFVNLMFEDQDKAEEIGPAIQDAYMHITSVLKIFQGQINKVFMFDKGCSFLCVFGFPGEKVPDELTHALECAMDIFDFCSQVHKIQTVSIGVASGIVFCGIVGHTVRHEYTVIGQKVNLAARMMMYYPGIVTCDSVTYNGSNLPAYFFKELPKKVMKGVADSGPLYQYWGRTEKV
Description: All in vitro adenylyl cyclase activity assays were performed via the “two-column” method measuring the conversion of [α-^32P] ATP into [^32P] cAMP[54], as previously described. Briefly, human sACt protein was incubated in buffer containing 50 mM Tris-HCl, pH 7.5, 4 mM MgCl2, 2 mM CaCl2, 1 mM ATP, 3 mM DTT, 40 mM NaHCO3 in the presence of the indicated concentrations of different sAC inhibitors or vehicle (1% DMSO).

mouse sperm = assay: Acrosome reaction assay, mouse sperm, zona pellucidae-evoked; assay type: cell-based
Description: Zonae pellucidae were isolated from female mice superovulated by intraperitoneal injection of 10 I.U. […] 3 days before the experiment. 14 h before oocyte isolation, mice were injected with 10 I.U. pregnant mare’s serum gonadotropin. Mice were sacrificed by cervical dislocation and oviducts were dissected. Cumulus-enclosed oocytes were separated from the oviducts and placed into TYH buffer containing 300 μg/ml hyaluronidase. After 15 min, cumulus-free oocytes were transferred into fresh buffer and washed twice. Zonae pellucidae and oocytes were separated by shear forces generated by expulsion from […] pasteur pipettes. Zona pellucidae were counted, transferred into fresh buffer, and heat-solubilized by incubation for 10 min at 65 °C.
(§1) Acrosome reaction was induced by incubating mouse sperm with 50 mouse solubilized zonae pellucidae for 15 min at 37 °C. Human sperm were incubated with 10 μM progesterone for 30 min at 37 °C. […] Samples were air-dried on microscope slides and fixed for 30 minutes in 100% ethanol at room temperature (RT). For acrosome staining, mouse and human sperm were incubated for 30 min in the dark with 5 μg/ml PNA-FITC or 5 μg/ml PSA-FITC, respectively, and counterstained with 2 μg/ml DAPI. After curing, slides were analyzed using a Zeiss LSM 880 Laser Scanning Confocal Microscope; images were captured with two photomultiplier and one Gallium Arsenide Phosphide detector using ZEN Imaging software. For each condition, at least 600 cells were analyzed using ImageJ 1.52.

human sperm = assay: Acrosome reaction assay, human sperm, progesterone-evoked; assay type: cell-based
Description: as §1

epididymal mouse sperm [2] = assay: Ex vivo motility (CASA) of epididymal sperm from inhibitor-treated male mice; assay type: in vivo; set-up: hyperactivated motility (%): concentration or dose not given beside the values
Description: Sperm movements of 10 fields of at least 200 sperm were examined using computer-assisted sperm analysis (CASA) via Hamilton–Thorne digital image analyzer (IVOS II, Hamilton Thorne Research, Beverly, MA) with the following parameters: 30 frames, frame rate: 60 Hz, cell size: 30–170 μm^2. Ejaculated uterine mouse sperm were recorded without additional dilution. Sperm were considered motile when presenting STR ≥80% and VAP ≥50 μm/s and hyperactivated when presenting VCL ≥270 μm/s, LIN < 50%, and ALH ≥7 μm. Track´s color code: motile (green), progressive (turquoise), hyperactivated (purple), slow (pink), static (red), not counted due to late entry (yellow).

epididymal mouse sperm [3] = assay: Tyrosine phosphorylation (pY) Western blot of sperm from injected mice; settings: 50 mg/kg i.p., 1 hour
Description: (§2) For capacitation, sperm were incubated for 90 min in TYH containing 3 mg/ml BSA and 25 mM NaHCO3 in a 37 °C incubator. To control for the consequences of dilution during isolation of epididymal mouse sperm for ex vivo assays, we assessed the ability of bicarbonate to induce a prototypical pattern of tyrosine phosphorylation (pY) which is a widely used molecular hallmark of capacitation[53]. […] For experiments studying sperm from injected mice, ‘swim out’ was performed in 200 μl TYH, which corresponded to a 1:10 dilution from epididymis (20 μg cauda in 200 μl buffer). Capacitation-induced changes were assessed by adding 50 µl of ‘swim out’ sperm to increasing volumes of capacitating TYH buffer.
Mouse sperm from vehicle- or inhibitor-injected mice were isolated 1 hour post injection from male mice injected (i.p.) with 150 µl of solution containing sAC inhibitor or vehicle. ‘Swim out’ sperm were diluted 1:1 to 1:100 in capacitating TYH media. As control, sperm from vehicle-injected mice were diluted 1:100 in non-capacitating and capacitating TYH buffer. The samples were incubated for 90 min, washed with 1 ml PBS and sedimented by centrifugation at 2000 × g for 3 min. The sedimented sperm were resuspended in 15 μl 2× Laemmli sample buffer, heated for 5 min at 95 °C, supplemented with 8 µl β-mercaptoethanol and heated again for 5 min at 95 °C. For Western blot analysis, proteins were transferred onto PVDF membranes (Thermo Scientific), probed with anti-phosphotyrosine (1:1000, clone 4G10, Merck Millipore) and anti-mouse IgG (1:10,000, Cell Signaling Technology) antibodies, and analyzed using a chemiluminescence detection system. Image lab (Bio-Rad) was used for densitometric analysis of western blots.

epididymal mouse sperm [4] = assay: Ex vivo cAMP generation in epididymal sperm from inhibitor-treated male mice (oral or i.p.)
Description: as §2
Intracellular cAMP levels were quantified using the Direct cAMP ELISA kit (Enzo) as above.

[5] = concentration (uM) -0.52288 [sic]
[6] = concentration (uM) -1.95424 [sic]
[7] = concentration (uM) -2.43136 [sic]
[8] = concentration (uM) -2.90848 [sic]
[9] = concentration (uM) -3.38561 [sic]
[10] = concentration (uM) -3.86274 [sic]
[11] = concentration (uM) -4.33985 [sic]
[12] = concentration (uM) -4.81696 [sic]
[13] = concentration (uM) printed -1.47712

## Nc1nc(Cl)cc(-c2nn(C(F)F)cc2Cc2ccccc2OCCN2CCOC[C@@H]2CO)n1 [TDI-11861]
[1]; [5]
  cyclase activity (%): 0%
  cyclase activity: 2069 and 1544 and 1561.8 and 2385.2 and 2164.1 and 1653.5
[1]; concentration (uM) -1 [sic]
  cyclase activity (%): 1.344% and 1.8728% and 2.004% and 2.905% and 3.587% and 4.384%
  cyclase activity: 2867.6 and 2750.4 and 2889.4 and 3159.9 and 3272.8 and 3037.2
[1]; [6]
  cyclase activity (%): 19.6796% and 15.3927% and 17.558% and 30.5194% and 31.8303% and 33.3011%
  cyclase activity: 13763.6 and 11459.5 and 13193 and 10525 and 12002.6 and 12163.6
[1]; [7]
  cyclase activity (%): 38.6741% and 36.8021% and 41.7291% and 63.9723% and 46.6554% and 57.8417%
  cyclase activity: 25051.1 and 25250.8 and 29205 and 19447.2 and 16584.9 and 19908.8
[1]; [8]
  cyclase activity (%): 59.9199% and 65.2563% and 61.8852% and 88.985% and 69.2179% and 73.6242%
  cyclase activity: 37676.4 and 43580.1 and 42557.3 and 26118.3 and 23558.8 and 24889.9
[1]; [9]
  cyclase activity (%): 101.82% and 89.3095% and 88.0533% and 91.9223% and 87.6768% and 92.6716%
  cyclase activity: 62575.6 and 59074.4 and 59892.2 and 26901.7 and 29264.3 and 30901.4
[1]; [10]
  cyclase activity (%): 102.032% and 91.5857% and 92.0528% and 108.947% and 93.3751% and 103.72%
  cyclase activity: 62701.3 and 60540.7 and 62541.6 and 31442.4 and 31025.6 and 34388.3
[1]; [11]
  cyclase activity (%): 103.469% and 99.6453% and 98.4201% and 105.132% and 92.0891% and 95.6319%
  cyclase activity: 63555.2 and 65732.4 and 66759.6 and 30424.8 and 30628.1 and 31835.7
[1]; [12]
  cyclase activity (%): 100%
  cyclase activity: 61494 and 65960.9 and 67806.2 and 29056.1 and 33073.3 and 33214.3
[1]; [13]
  cyclase activity (%): 6.461% and 6.308% and 6.301% and 11.7225% and 11.6858% and 13.5507%
  cyclase activity: 5908.5 and 5607.6 and 5735.6 and 5511.7 and 5776.1 and 5930.2
Mouse sperm
  toxicity to sperm (rescue of acrosome response by cAMP/IBMX): not toxic to sperm
Mouse sperm; Fig. 2g replicates, 5 mM db-cAMP/500 μM IBMX, 5 μM TDI-10229 or 10 nM TDI-11861
  Acrosome reacted (%), basal + db-cAMP/IBMX: 33.6897% and 30.4912% and 38.1667% and 17.5365% and 24% and 40.1452%
Mouse sperm; Fig. 2g replicates, 50 heat-solubilized zona pellucidae, 5 μM TDI-10229 or 10 nM TDI-11861
  Acrosome reacted (%), ZP: 22.9233% and 33% and 26.2439% and 20.6667% and 34.5025% and 32.3333%
Mouse sperm; Fig. 2g replicates, 90 min capacitating media, 5 μM TDI-10229 or 10 nM TDI-11861
  Acrosome reacted (%), basal: 31.9785% and 35% and 27.6378% and 28.974% and 29% and 25%
Mouse sperm; Fig. 2g replicates, zona pellucidae, 5 mM db-cAMP/500 μM IBMX, 5 μM TDI-10229 or 10 nM TDI-11861
  Acrosome reacted (%), ZP + db-cAMP/IBMX: 42.963% and 32.2222% and 37.3475% and 28% and 29.3534% and 43%
Human sperm
  toxicity to sperm (rescue of acrosome response by cAMP/IBMX): not toxic to sperm
Human sperm; Fig. 2h replicates, 10 μM progesterone, 5 μM TDI-10229 or 10 nM TDI-11861
  Acrosome reacted (%), Prog: 11.2728% and 11.1787% and 11.2041% and 9.266% and 10.4762% and 13.6206%
Human sperm; Fig. 2h replicates, 10 μM progesterone, 5 mM db-cAMP/500 μM IBMX, 5 μM TDI-10229 or 10 nM TDI-11861
  Acrosome reacted (%), Prog + db-cAMP/IBMX: 28.3207% and 19.1712% and 18.125% and 29.0658% and 24.3412% and 18.4673%
Human sperm; Fig. 2h replicates, 5 mM db-cAMP/500 μM IBMX, 5 μM TDI-10229 or 10 nM TDI-11861
  Acrosome reacted (%), basal + db-cAMP/IBMX: 16.1667% and 6.667% and 10.5% and 10.6667% and 19.1045% and 11.7728%
Human sperm; Fig. 2h replicates, 180 min capacitating media, 5 μM TDI-10229 or 10 nM TDI-11861
  Acrosome reacted (%), basal: 12.5473% and 10% and 15.2336% and 15.1667% and 10.3704% and 13.6209%
Epididymal mouse sperm [2]; 50 mg/kg i.p.
  earliest time of motility inhibition post i.p.-injection: 15 min
Epididymal mouse sperm [2]; 50 mg/kg i.p., 24 hours post-injection
  recovery of sperm motility: most sperm from TDI-11861-injected mice had recovered motility
Epididymal mouse sperm [2]; 50 mg/kg oral
  motility of epididymal sperm diluted ex vivo: essentially immotile
Epididymal mouse sperm [2]; Fig. 3b replicates, 50 mg/kg oral gavage, 1 hour, diluted 1:100 in inhibitor-free non-capacitating media, CASA, 50 mg/kg
  motility (%): 2.8% and 0.5% and 0.3% and 0.7% and 1.7% and 1.9% and 3.3% and 1.6% and 3.6% and 3.8% and 1.1%
Epididymal mouse sperm [2]; Fig. 3b replicates, 50 mg/kg oral gavage, 1 hour, in presence of 5 mM db-cAMP/500 μM IBMX, 50 mg/kg
  motility (%), + cAMP: 10.8% and 22.6% and 32.3% and 13.1% and 19.4% and 14.6% and 14% and 11.2%
Epididymal mouse sperm [2]; Fig. 4b, epididymal sperm
  progressive motility (%): 0.9% and 1.3% and 2.1% and 0.4% and 1.5% and 0.8% and 0.3%
Epididymal mouse sperm [2]; Fig. 4c, epididymal sperm
  hyperactivated motility (%): 0.8% and 0.4% and 1.6% and 0.2% and 0.1% and 0.6% and 0.3%
Epididymal mouse sperm [2]; Fig. 5, time 0.25 h
  motility (%): 0.4% and 0.6% and 0.8% and 0.3% and 0.7% and 1.3% and 1%
Epididymal mouse sperm [2]; Fig. 5, time 0.5 h
  motility (%): 3.4% and 0.5% and 1.4% and 4.6% and 1.7% and 0.9%
Epididymal mouse sperm [2]; Fig. 5, time 2 h
  motility (%): 1.1% and 1.7% and 1.2% and 0.7% and 2.3% and 2.7%
Epididymal mouse sperm [2]; Fig. 5, time 2.5 h
  motility (%): 0.8% and 6.3% and 0.7% and 1.3% and 0.9% and 0.4%
Epididymal mouse sperm [2]; Fig. 5, time 3 h
  motility (%): 1.2% and 0.4% and 6.5% and 6.2% and 3.7%
Epididymal mouse sperm [2]; Fig. 5, time 24 h
  motility (%): 22.8% and 19.1% and 22% and 33.1% and 20.5% and 20.6%
Epididymal mouse sperm [2]; Fig. 3d, + cAMP, individual replicates
  motility (%): 17.3% and 12.5% and 13.3% and 33% and 16.6% and 14.6%
Epididymal mouse sperm [2]; Fig. 3d, individual replicates
  motility (%): 3% and 0.6% and 2% (2×) and 1.9% and 3.8% and 2.2% and 2.3% and 1.4% and 0.9% (2×) and 2.5% and 0.4% and 0.2% and 1.1% and 2.8%
Epididymal mouse sperm [3]; diluted 100 fold
  capacitation-induced pY pattern: remained blocked
Epididymal mouse sperm [3]; swim out sperm mixed with equal volume capacitation media
  capacitation-induced pY pattern: blocked
Epididymal mouse sperm [4]; 50 mg/kg i.p.
  bicarbonate-induced cAMP response, sperm directly isolated: prevented bicarbonate-induced increase in cAMP
  inhibition of bicarbonate-induced cAMP elevation and motility after ex vivo dilution: persisted following ex vivo dilution
Epididymal mouse sperm [4]; 50 mg/kg oral, 1 hour, cauda sperm
  bicarbonate-induced cAMP response, sperm measured directly: no bicarbonate-induced increase in cAMP
Epididymal mouse sperm [4]; Fig. 3a replicates, 50 mg/kg oral gavage, 100-fold dilution into inhibitor-free media, capacitating relative to non-capacitated, 50 mg/kg
  normalized cAMP, diluted: 1.404 and 1.468 and 0.846 and 0.4392 and 0.6198 and 0.8825 and 1.178 and 0.8649 and 1.043
Epididymal mouse sperm [4]; Fig. 3a replicates, 50 mg/kg oral gavage, capacitating relative to non-capacitated sperm of same mouse, 12 minutes, 50 mg/kg
  normalized cAMP, non-diluted: 1.2234 and 1.098 and 0.3601 and 0.9436 and 0.9025 and 0.6956 and 0.2677 and 0.09176 and 0.3627
Epididymal mouse sperm [4]; Fig. 3c replicates, 50 mg/kg i.p., 100-fold dilution into inhibitor-free media, capacitating relative to non-capacitated, 50 mg/kg
  normalize cAMP, diluted: 0.9454 and 0.4612 and 0.4886 and 0.7809 and 1.256 and 0.4688 and 0.8437 and 0.776 and 0.4914 and 0.7724 and 0.3623
Epididymal mouse sperm [4]; Fig. 3c replicates, 50 mg/kg i.p., capacitating relative to non-capacitated sperm of same mouse, 12 minutes, 50 mg/kg
  normalize cAMP, non-diluted: 0.1221 and 0.9832 and 1.008 and 0.7764 and 0.7982 and 0.2443 and 0.1415 and 0.1173 and 0.5249 and 1.087 and 1.4
